Data taken from patent US6281356A, “Substituted pyrroles” (Hoffmann-La Roche Inc., priority 2000, dated 2001).
pIC50: −log10 of the molar value.

Tested on: epithelial breast carcinoma cell line (MDAMB-435)
Assay: Antiproliferative activity (growth inhibition, MTT), epithelial breast carcinoma cell line MDAMB-435
Format: cell-based
Conditions: Homo sapiens, MDA-MB-435, 120 h, 5 days post drug addition, 0.1% DMSO, read-out: IC50 (growth inhibition of MDAMB-435 cells)
Protocol: The epithelial breast carcinoma cell line (MDAMB-435) was purchased from ATCC (American Type Cell Culture Collection) and was grown in culture medium as recommended by ATCC. For analysis of the effect of various compounds of formula I on the growth of these cells, the cells were plated at a concentration of 1500 cells/well in a 96 well tissue culture plate ("test plate"). The day after the cells were plated, the compounds to be analyzed were dissolved in 100% DMSO (dimethyl sulfoxide) to yield at 10 mM stock solution. Each compound was diluted in H2 O to 1 mM and was added to triplicate wells in the first row of a 96 well master plate containing medium to yield a final concentration of 40 μM. The compounds were then serially diluted in medium in the "master plate". The diluted compound(s) were then transferred to test plates containing cells. A row of vehicle "control cells" received DMSO. The final concentration of DMSO in each well was 0.1%. 5 days post drug addition, the plate was analyzed as described below.
MTT (3-(4-5 methyl thiazole-2-yl)-2,5-diphenyl tetrazolium bromide; thiazolyl blue) was added to each well to yield a final concentration of 1 mg/ml. The plate was then incubated at 37° C. for 21/2-3 hours. The MTT-containing medium was then removed and 50 μl of 100% ethanol was added to each well to dissolve the formazan. The absorbences were then read using an automated plate reader (Bio-tek microplate reader). IC50 s were calculated using the Reed and Munsch equation, see Am. J. Hygiene Vol. 27 pgs. 493-497,1938.

Row | Structure (SMILES) | pIC50
1 | COCc1ccc2c(C3=C(c4cn(C)c5cc(N6CCOCC6)ccc45)C(=O)NC3=O)cn(C)c2c1 [Example 16, 3-(6-methoxymethyl-1-methyl-1H-indol-3-yl)-4-(1-methyl-6-morpholin-4-yl-1H-indol-3-yl)pyrrole-2,5-dione] | 5.93
2 | Cn1cc(C2=C(c3cn(C)c4cc([N+](=O)[O-])ccc34)C(=O)NC2=O)c2ccc(OCCn3ccnc3)cc21 [Example 17, 3-[6-(2-Imidazol-1-yl-ethoxy)-1-methyl-1H-indol-3-yl]-4-(1-methyl-6-nitro-1H-indol-3-yl)pyrrole-2,5-dione] | 7.15
3 | Cn1cc(C2=C(c3cn(C)c4cc(-c5cncnc5)ccc34)C(=O)NC2=O)c2ccccc21 [Example 19, 3-(1-Methyl-1-indol-3-yl)-4-(1-methyl-6-pyrimidin-5-yl-1H-indol-3-yl)pyrrole-2,5-dione] | 7.10

Now those with a higher pIC50, led by results:

Row | pIC50 | Structure (SMILES)
4 | > 8.00 | Cn1cc(C2=C(c3cn(C)c4cc(N5CCCC5)ccc34)C(=O)NC2=O)c2ccc(C#N)cc21 [Example 15, 1-Methyl-3-[4-(1-methyl-6-pyrrolidin-1-yl-1H-indol-3-yl)-2,5-dioxo-2,5dihydro-1H-pyrrole-3-yl]-1H-indole-6-carbonitrile]
5 | 7.30 | Cn1cc(C2=C(c3cn(C)c4cc([N+](=O)[O-])ccc34)C(=O)NC2=O)c2ccc(-c3cncnc3)cc21 [Example 18, 3-(1-Methyl-6-nitro-1H-indol-3-yl)-4-(1-methyl-6-pyrimidin-5-yl-1H-indol-3-yl)pyrrole-2,5-dione]
